Reference: patent publication US10155721B2, “Lignanamides and a method of treating neurodegenerative diseases by using the same” (Macau University of Science and Technology, priority 2017, dated 2018)

Key:
Format in all cases: cell-based
SH-SY5Y cells [1] = assay: MTT assay, Tm-induced cytotoxicity in SH-SY5Y cells (FIG. 13B); conditions: pre-treatment 12.5, 25, 50 μM for 12 h, then inducer 48 h
Procedure: (§1) In one example embodiment, effects of the Sativamide A and the Sativamide B on ER stress-induced neurotoxicity on a neuroblastoma cell models (SH-SY5Y cells) are tested. SH-SY5Y cells are purchased from the American Type Culture Collection (ATCC). SH-SY5Y cells are cultured in 1:1 mixture of DMEM and F12 medium containing 10% fetal bovine serum (Gibco, Carlsbad, USA). SH-SY5Y cells are incubated at 37° C. in a humidified atmosphere of 5% CO2 and 95% air. SH-SY5Y cells are seeded into 96-well culture plates (5.0×10^3 cells/well) and cultured under standard conditions for 12 h. Cells are then treated with the Sativamide A and the Sativamide B at concentrations of 12.5 μM, 25 μM and 50 μM or a vehicle for another 12 h. After treatment, the whole medium is replaced with fresh medium containing Tm (0.1 or 1.0 μM) or Tg (10 or 100 nM) and cells are incubated for additional 48 h. After incubation, supernatant is changed by fresh medium and MTT is given at a concentration of 0.5 mg/mL. After incubation at 37° C. for 4 h, the absorbance is measured at 570 nm with a micro-plate reader.

PC12 cells [2] = assay: MTT assay, thapsigargin (Tg)-induced cytotoxicity in PC12 cells; conditions: pre-treatment 12.5, 25, 50 μM for 12 h, then Tg 48 h; FIG. 12C
Procedure: (§2) In one example embodiment, effects of the Sativamide A and the Sativamide B ER stress-induced neurotoxicity on a neuroblastoma cell model (PC12 cells) are tested. PC-12 cells are purchased from the American Type Culture Collection (ATCC). PC-12 cells are cultured in DMEM medium (Invitrogen) supplemented with 100 U/ml penicillin, 100 μg/mL streptomycin, and 10% horse serum and 5% fetal bovine serum (Gibco, Carlsbad, USA). The cells are incubated at 37° C. in a humidified atmosphere of 5% CO2 and 95% air. PC12 cells are seeded into 96-well culture plates (5.0×10^3 cells/well) and cultured under standard conditions for 12 h. Cells are then treated with the Sativamide A and the Sativamide B at concentrations of 12.5 μM, 25 μM and 50 μM or a vehicle for another 12 h. After treatment, the whole medium is replaced with fresh medium containing tunicamycin (Tm) (0.1 nM or 1.0 μM) or thapsigargin (Tg) (10 nM or 100 nM) and the cells are incubated for additional 48 h. After incubation, supernatant is changed by fresh medium and thiazolyl blue tetrazolium bromide (MTT) is given at a concentration of 0.5 mg/mL. After incubation at 37° C. for 4 h, the absorbance is measured at 570 nm with a micro-plate reader.

SH-SY5Y cells [3] = assay: Effect of the compounds on viability of SH-SY5Y cells; conditions: final concentration 50 μM, FIGS. 13A to 13C
Procedure: as §1

SH-SY5Y cells [4] = assay: MTT assay and microscopy, Tg-induced cytotoxicity in SH-SY5Y cells; conditions: for Tg-induced cell death and cell growth (microscopic observations): SH-SY5Y cells pre-treated with 50 μM, FIG. 13A; for ER stress-mediated Tg-induced cytotoxicity in SH-SY5Y cells (MTT assay): pre-treatment 12.5, 25, 50 μM for 12 h, then Tg 48 h, FIG. 13C
Procedure: as §1

PC12 cells [5] = assay: MTT assay and microscopy, tunicamycin (Tm)-induced cytotoxicity in PC12 cells; conditions: for cell death and cell growth induced by Tm (microscopic observations): PC12 cells pre-treated with 50 μM, FIG. 12A; for Tm-induced PC12 cell toxicity (MTT assay): pre-treatment 12.5, 25, 50 μM for 12 h, then Tm 48 h, FIG. 12B
Procedure: as §2

PC12 cells [6] = assay: Effect of the compounds on viability of PC12 cells; conditions: final concentration 50 μM, FIGS. 12A to 12C
Procedure: as §2

| Compound | Tg-induced SH-SY5Y cell toxicity (MTT assay, FIG. 13B) (SH-SY5Y cells [1]) | ER stress-mediated cytotoxicity in PC12 cells induced by Tg (MTT assay) (PC12 cells [2]) | adverse effects on cell viability (SH-SY5Y cells [3]) | Tg-induced cell death and cell growth (microscopic observations) (SH-SY5Y cells [4]) | ER stress-mediated Tg-induced cytotoxicity in SH-SY5Y cells (MTT assay) (SH-SY5Y cells [4]) | cell death and cell growth induced by Tm (microscopic observations) (PC12 cells [5]) | Tm-induced PC12 cell toxicity (MTT assay) (PC12 cells [5]) | adverse effects on cell viability (PC12 cells [6]) |
| --- | --- | --- | --- | --- | --- | --- | --- | --- |
| O=C(NCCc1ccc(O)cc1)C1=C[C@]23C=CC(=O)[C@@]2(O)c2cc(O)c(O)cc2[C@@H]3[C@H]1C(=O)NCCc1ccc(O)cc1 [Sativamide A] | mitigate the Tg-induced SH-SY5Y cell toxicity in a dose-dependent manner | suppress ER stress-mediated cytotoxicity in PC12 cells that is induced by Tg in a dose-dependent manner | no adverse effects on cell viability | markedly reduced | suppress ER stress-mediated Tg-induced cytotoxicity in SH-SY5Y cells tin a dose-dependent manner | markedly reduced | mitigate the Tm-induced PC12 cell toxicity in a dose-dependent manner | no adverse effects on cell viability |
| CO[C@]12C(=O)C=C[C@]13C=C(C(=O)NCCc1ccc(O)cc1)[C@H](C(=O)NCCc1ccc(O)cc1)[C@@H]3c1cc(O)c(O)cc12 [Sativamide B, 10-methoxyl-sativamide A] | mitigate the Tg-induced SH-SY5Y cell toxicity in a dose-dependent manner | suppress ER stress-mediated cytotoxicity in PC12 cells that is induced by Tg in a dose-dependent manner | no adverse effects on cell viability | markedly reduced | suppress ER stress-mediated Tg-induced cytotoxicity in SH-SY5Y cells tin a dose-dependent manner | markedly reduced | mitigate the Tm-induced PC12 cell toxicity in a dose-dependent manner | no adverse effects on cell viability |
